According to publication PMC7318359, “Stapled Peptides as HIF‐1α/p300 Inhibitors: Helicity Enhancement in the Bound State Increases Inhibitory Potency” (Chemistry (Weinheim an Der Bergstrasse, Germany), 2020):
Bridge positions count the residues as written; N and C are the ends. Ends that are not written are not given here. Peptide text beside a SMILES is read from it.

B1: HIF‐1α_(812–826) sE816C‐R820C (peptide, UniProt Q16665 812-826, looked up)
peptide: Ac-LLQGCELLCALDQVN
modifications: bridge 5-9; not fully specified (bridges)
notes: Made on Rink Amide MBHA resin, so probably a C-terminal amide; also called stapled peptide; dibromomaleimide stapled (s) E816C-R820C; source: synthetic peptide

Tests used:
HIF‐1α/p300 interaction = HIF‐1α/p300 interaction (Homo sapiens, UniProt Q09472); experiment: Fluorescence anisotropy competition assay (displacement of FITC‐Ahx‐HIF‐1α786–826 tracer from p300); type: binding; conditions: p300 (100 nM); for IC50: FA competition, FITC‐Ahx‐HIF‐1α786–826 tracer, 20 mM Tris, 100 mM NaCl 0.1 mM DTT, pH 7.46, read after 45 minutes at room temperature, triplicate
Protocol: Fluorescence anisotropy assays were performed in 384‐well plates (Greiner Bio‐one). Each experiment was run in triplicate and the fluorescence anisotropy measured using a Perkin–Elmer EnVisionTM 2103 MultiLabel plate reader, with excitation at 480 nm (30 nm bandwidth), polarised dichroic mirror at 505 nm and emission at 535 nm (40 nm bandwidth, S and P polarised). All assays were performed in 20 mM Tris, 100 mM NaCl 0.1 mM DTT, pH 7.46 unless otherwise stated and data analysed following previously published methods.
Where I is the total intensity, G is an instrument factor which was set to 1 for all experiments and r is the anisotropy. The average anisotropy (across three experimental replicates) and the standard deviation of these values were then calculated and fit to a sigmoidal logistic model [Eq. (3)] using OriginPro 9.0 which provided the IC50 and error values: y = r max + (r min−r max)/(1+(x/xo) p).
FA competition assays were performed in 384 well plates with the concentration of peptide competitor typically starting from 850 μM, diluted over 16 points in 1/2 regime with fixed protein and tracer concentrations. […] For control wells, the tracer peptide was replaced with an identical volume of assay buffer. The total volume in each well was 60 μL. Plates were read after 45 minutes of incubation at room temperature.

p300 = p300 (UniProt Q09472 1-2414); experiment: fluorescence polarisation; fluorescence anisotropy competition; peptide competitor diluted from about 850 μM over 16 points against fixed p300 (100 nM) and FITC tracer (25 nM in the legend, 50 nM in the methods); 20 mM Tris, 100 mM NaCl, 0.1 mM DTT, pH 7.46; 45 minutes at room temperature; conditions: both partners purified
p300, sequence (Q09472 whole entry): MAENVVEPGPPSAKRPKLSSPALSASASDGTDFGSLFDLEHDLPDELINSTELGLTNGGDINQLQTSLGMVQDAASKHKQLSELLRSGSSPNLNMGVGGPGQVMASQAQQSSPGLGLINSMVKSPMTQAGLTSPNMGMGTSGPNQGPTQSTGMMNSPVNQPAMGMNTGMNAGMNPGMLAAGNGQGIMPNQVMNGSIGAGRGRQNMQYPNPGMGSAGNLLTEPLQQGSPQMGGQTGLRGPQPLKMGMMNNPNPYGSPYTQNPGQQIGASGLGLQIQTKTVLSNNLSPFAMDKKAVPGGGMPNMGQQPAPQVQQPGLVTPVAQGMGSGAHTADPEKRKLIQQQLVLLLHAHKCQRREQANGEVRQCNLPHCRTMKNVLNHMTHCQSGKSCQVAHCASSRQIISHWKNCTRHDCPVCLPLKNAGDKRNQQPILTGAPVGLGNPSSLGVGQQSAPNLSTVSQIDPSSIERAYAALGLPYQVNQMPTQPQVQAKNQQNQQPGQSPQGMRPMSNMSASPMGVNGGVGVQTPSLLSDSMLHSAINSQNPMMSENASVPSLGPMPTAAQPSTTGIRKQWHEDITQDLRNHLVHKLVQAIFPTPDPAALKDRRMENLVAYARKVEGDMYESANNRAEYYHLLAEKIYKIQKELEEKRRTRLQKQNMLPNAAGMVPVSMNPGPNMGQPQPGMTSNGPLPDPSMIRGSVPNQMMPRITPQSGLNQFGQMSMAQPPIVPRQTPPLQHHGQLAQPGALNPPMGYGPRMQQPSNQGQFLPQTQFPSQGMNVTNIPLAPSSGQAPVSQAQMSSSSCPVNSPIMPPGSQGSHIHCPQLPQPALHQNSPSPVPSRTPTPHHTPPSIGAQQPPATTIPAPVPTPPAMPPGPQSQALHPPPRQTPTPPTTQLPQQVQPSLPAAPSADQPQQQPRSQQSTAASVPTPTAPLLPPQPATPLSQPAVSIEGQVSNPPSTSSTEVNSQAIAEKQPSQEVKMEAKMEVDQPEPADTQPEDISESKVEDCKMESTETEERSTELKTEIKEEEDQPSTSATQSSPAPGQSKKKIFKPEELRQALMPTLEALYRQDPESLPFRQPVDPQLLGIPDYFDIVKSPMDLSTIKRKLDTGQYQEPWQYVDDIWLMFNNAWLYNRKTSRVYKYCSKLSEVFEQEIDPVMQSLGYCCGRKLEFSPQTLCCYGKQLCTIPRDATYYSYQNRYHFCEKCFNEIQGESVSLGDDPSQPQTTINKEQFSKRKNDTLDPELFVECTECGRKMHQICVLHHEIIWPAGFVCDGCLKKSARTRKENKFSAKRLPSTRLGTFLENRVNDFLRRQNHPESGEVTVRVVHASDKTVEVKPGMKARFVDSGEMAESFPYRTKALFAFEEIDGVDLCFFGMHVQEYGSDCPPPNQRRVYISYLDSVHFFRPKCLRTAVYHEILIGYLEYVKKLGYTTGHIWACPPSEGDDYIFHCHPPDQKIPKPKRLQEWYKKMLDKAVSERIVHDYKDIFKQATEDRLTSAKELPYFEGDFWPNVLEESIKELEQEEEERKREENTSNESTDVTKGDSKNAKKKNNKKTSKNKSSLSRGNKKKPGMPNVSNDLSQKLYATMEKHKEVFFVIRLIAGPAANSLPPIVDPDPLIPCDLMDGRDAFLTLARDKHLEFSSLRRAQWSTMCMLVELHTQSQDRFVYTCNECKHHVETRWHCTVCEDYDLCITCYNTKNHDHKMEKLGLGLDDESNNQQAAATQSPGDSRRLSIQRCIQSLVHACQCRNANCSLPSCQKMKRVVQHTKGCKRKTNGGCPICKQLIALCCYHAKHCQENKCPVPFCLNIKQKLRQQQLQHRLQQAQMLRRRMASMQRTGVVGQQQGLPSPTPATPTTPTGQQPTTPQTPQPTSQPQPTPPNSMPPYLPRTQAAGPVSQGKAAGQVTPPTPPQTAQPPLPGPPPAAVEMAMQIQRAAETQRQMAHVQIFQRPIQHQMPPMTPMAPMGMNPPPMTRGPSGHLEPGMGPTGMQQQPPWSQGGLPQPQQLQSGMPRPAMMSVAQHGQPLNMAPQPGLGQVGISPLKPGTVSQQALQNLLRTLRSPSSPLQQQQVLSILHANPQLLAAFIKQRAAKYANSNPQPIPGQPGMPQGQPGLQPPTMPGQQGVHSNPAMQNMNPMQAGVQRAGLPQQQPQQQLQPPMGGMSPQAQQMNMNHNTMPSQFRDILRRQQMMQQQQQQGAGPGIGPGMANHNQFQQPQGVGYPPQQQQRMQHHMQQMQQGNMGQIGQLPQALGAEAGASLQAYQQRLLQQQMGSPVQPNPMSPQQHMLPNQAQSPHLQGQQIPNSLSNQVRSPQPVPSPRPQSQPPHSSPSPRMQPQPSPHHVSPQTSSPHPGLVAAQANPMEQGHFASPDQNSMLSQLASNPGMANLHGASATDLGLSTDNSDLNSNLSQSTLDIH

| Molecule | IC50 (HIF‐1α/p300 interaction) [µM] | further results |
| --- | --- | --- |
| CC(=O)N[C@@H](CC(C)C)C(=O)N[C@@H](CCC(N)=O)C(=O)NCC(=O)N[C@H]1CSSC[C@@H](C(=O)N[C@@H](C)C(=O)N[C@@H](CC(C)C)C(=O)N[C@@H](CC(=O)O)C(=O)N[C@@H](CCC(N)=O)C(=O)N[C@H](C(=O)N[C@@H](CC(N)=O)C(N)=O)C(C)C)NC(=O)[C@H](CC(C)C)NC(=O)[C@H](CC(C)C)NC(=O)[C@H](CCC(=O)O)NC1=O [HIF‐1α812–826 oxE816C‐R820C] (Ac-LQGCELLCALDQVN-NH2; disulfide 4-8) | > 600 |  |
| CC(=O)N[C@@H](CC(C)C)C(=O)N[C@@H](CCC(N)=O)C(=O)NCC(=O)N[C@@H](CS)C(=O)N[C@@H](CCC(=O)O)C(=O)N[C@@H](CC(C)C)C(=O)N[C@@H](CC(C)C)C(=O)N[C@@H](CS)C(=O)N[C@@H](C)C(=O)N[C@@H](CC(C)C)C(=O)N[C@@H](CC(=O)O)C(=O)N[C@@H](CCC(N)=O)C(=O)N[C@H](C(=O)N[C@@H](CC(N)=O)C(N)=O)C(C)C [HIF‐1α812–826 redE816C‐R820C] (Ac-LQGCELLCALDQVN-NH2) | 9.9 |  |
| Ac-LQGEELLRALDQVN-NH2 [wt‐HIF‐1α812–826, wild‐type HIF‐1α helix 3 peptide, N‐acetyl, C‐terminal amide] |  | Inhibition / tracer displacement in FA competition assay (HIF‐1α/p300 interaction; FITC‐Ahx‐HIF‐1α786–826 tracer (25 nM), pH 7.46): weak inhibition and could not fully displace tracer |
| B1 |  | IC50 (p300): 30.3 ± 5 µM |
